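These data come from cells grown in 96-well plates and exposed to compound for 48 hours at five concentrations. TGI: concentration producing complete growth inhibition.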
Assays:
Assay in all cases: inhibition of tumour cell growth, NCI panel, 48 h
[1] = system: HL-60(TB) leukemia
[2] = system: HCT-15 colon
[3] = system: EKVX NSCLC
[4] = system: T-47D breast
[5] = system: UO-31 renal
[6] = system: MALME-3M melanoma
[7] = system: UACC-62 melanoma
[8] = system: IGROV1 ovarian
[9] = system: NCI-H522 lung
[10] = system: TK-10 renal
[11] = system: OVCAR-5 ovarian
[12] = system: LOX IMVI melanoma
[13] = system: NCI-H226 lung
[14] = system: MOLT-4 leukemia
[15] = system: RXF 393 renal
[16] = system: SF-539 CNS
[17] = system: NCI/ADR-RES ovarian
[18] = system: 786-0 renal
[19] = system: NCI-H460 lung
[20] = system: HS 578T breast
[21] = system: SW-620 colon
[22] = system: A549 NSCLC
[23] = system: SN12C renal
[24] = system: MDA-MB-435
[25] = system: SK-MEL-28 melanoma
[26] = system: HCT-116 colon
[27] = system: HCC-2998 colon
[28] = system: HOP-92 NSCLC
[29] = system: OVCAR-4 ovarian
[30] = system: OVCAR-3 ovarian
[31] = system: PC-3 prostate
[32] = system: UACC-257 melanoma
[33] = system: A498 renal
[34] = system: NCI-H23 lung
[35] = system: HT29 colon
[36] = system: M14 melanoma
[37] = system: CCRF-CEM leukemia
[38] = system: SK-OV-3 ovarian
[39] = system: SF-295 CNS
[40] = system: DU-145 prostate
[41] = system: RPMI-8226 leukemia
[42] = system: COLO 205 colon
[43] = system: MCF7 breast
[44] = system: SR leukemia
[45] = system: SK-MEL-2 melanoma
[46] = system: CAKI-1 renal
[47] = system: BT-549 breast
[48] = system: OVCAR-8 ovarian
[49] = system: MDA-N
[50] = system: HOP-62 NSCLC
[51] = system: K-562 leukemia
[52] = system: U251 CNS
[53] = system: SK-MEL-5 melanoma
[54] = system: MDA-MB-231 breast
[55] = system: ACHN renal
[56] = system: SF-268 CNS
[57] = system: SNB-75 CNS
[58] = system: KM12 colon
[59] = system: SNB-19 CNS

Measured: TGI

CCCCCOC(=O)C(=O)Nc1n[nH]nc1C(N)=O
> 100 µM: all assays above

O=S(=O)(O)c1ccc2c(N=Nc3cccc4ccccc34)c(O)c(S(=O)(=O)O)cc2c1
> 100 µM: all assays above
